Results from ChEMBL document CHEMBL4507264, “Data for DCP probe BAY-7598” (2021).

Legend:
[1] = molecular target: Activin receptor type-1B (Homo sapiens) (UniProt P36896); details: Compound concentration 1000.0 nM
[2] = molecular target: Cyclin-dependent kinase 4 (Homo sapiens) (UniProt P11802); details: Compound concentration 1000.0 nM
[3] = molecular target: Casein kinase I isoform gamma-1 (Homo sapiens) (UniProt Q9HCP0); details: Compound concentration 1000.0 nM
[4] = molecular target: Casein kinase I isoform gamma-3 (Homo sapiens) (UniProt Q9Y6M4); details: Compound concentration 1000.0 nM
[5] = molecular target: Casein kinase II subunit alpha' (Homo sapiens) (UniProt P19784); details: Compound concentration 1000.0 nM
[6] = molecular target: Serine/threonine-protein kinase DCLK1 (Homo sapiens) (UniProt O15075); details: Compound concentration 1000.0 nM
[7] = system: Epidermal growth factor receptor (Homo sapiens), P00533 [G719C]; details: Compound concentration 1000.0 nM
[8] = system: Epidermal growth factor receptor (Homo sapiens), P00533 [L858R]; details: Compound concentration 1000.0 nM
[9] = molecular target: Ephrin type-A receptor 5 (Homo sapiens) (UniProt P54756); details: Compound concentration 1000.0 nM
[10] = molecular target: Ephrin type-B receptor 6 (Homo sapiens) (UniProt O15197); details: Compound concentration 1000.0 nM
[11] = molecular target: Serine/threonine-protein kinase/endoribonuclease IRE1 (Homo sapiens) (UniProt O75460); details: Compound concentration 1000.0 nM
[12] = molecular target: Fibroblast growth factor receptor 2 (Homo sapiens) (UniProt P21802); details: Compound concentration 1000.0 nM
[13] = molecular target: Hormonally up-regulated neu tumor-associated kinase (Homo sapiens) (UniProt P57058); details: Compound concentration 1000.0 nM
Chain of Hormonally up-regulated neu tumor-associated kinase (Homo sapiens) (P57058 whole entry): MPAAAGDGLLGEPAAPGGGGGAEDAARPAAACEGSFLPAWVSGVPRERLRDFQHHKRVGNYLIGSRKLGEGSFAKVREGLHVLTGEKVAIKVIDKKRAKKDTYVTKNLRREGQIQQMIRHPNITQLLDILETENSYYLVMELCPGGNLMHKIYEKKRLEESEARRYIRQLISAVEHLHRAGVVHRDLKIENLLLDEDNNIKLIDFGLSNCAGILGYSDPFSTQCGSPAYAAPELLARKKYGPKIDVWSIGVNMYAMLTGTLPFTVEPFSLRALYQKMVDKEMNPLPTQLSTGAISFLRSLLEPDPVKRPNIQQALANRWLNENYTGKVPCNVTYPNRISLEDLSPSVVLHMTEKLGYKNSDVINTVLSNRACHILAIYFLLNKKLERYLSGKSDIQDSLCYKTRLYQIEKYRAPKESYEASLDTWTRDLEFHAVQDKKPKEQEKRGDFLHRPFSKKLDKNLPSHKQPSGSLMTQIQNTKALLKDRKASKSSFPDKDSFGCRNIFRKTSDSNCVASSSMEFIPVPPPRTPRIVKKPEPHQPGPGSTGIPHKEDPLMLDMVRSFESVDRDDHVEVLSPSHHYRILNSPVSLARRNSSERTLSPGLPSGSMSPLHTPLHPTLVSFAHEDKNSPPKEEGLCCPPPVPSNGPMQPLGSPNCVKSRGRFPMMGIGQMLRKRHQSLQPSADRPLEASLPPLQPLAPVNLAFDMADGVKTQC

[14] = molecular target: Tyrosine-protein kinase JAK1 (Homo sapiens) (UniProt P23458); details: Compound concentration 1000.0 nM
[15] = molecular target: Mitogen-activated protein kinase 10 (Homo sapiens) (UniProt P53779); details: Compound concentration 1000.0 nM
[16] = molecular target: Mitogen-activated protein kinase kinase kinase 4 (Homo sapiens) (UniProt Q9Y6R4); details: Compound concentration 1000.0 nM
[17] = system: Hepatocyte growth factor receptor (Homo sapiens), P08581 [M1250T]; details: Compound concentration 1000.0 nM
[18] = molecular target: Mitogen-activated protein kinase kinase kinase 10 (Homo sapiens) (UniProt Q02779); details: Compound concentration 1000.0 nM
Chain of Mitogen-activated protein kinase kinase kinase 10 (Homo sapiens) (Q02779 whole entry, looked up): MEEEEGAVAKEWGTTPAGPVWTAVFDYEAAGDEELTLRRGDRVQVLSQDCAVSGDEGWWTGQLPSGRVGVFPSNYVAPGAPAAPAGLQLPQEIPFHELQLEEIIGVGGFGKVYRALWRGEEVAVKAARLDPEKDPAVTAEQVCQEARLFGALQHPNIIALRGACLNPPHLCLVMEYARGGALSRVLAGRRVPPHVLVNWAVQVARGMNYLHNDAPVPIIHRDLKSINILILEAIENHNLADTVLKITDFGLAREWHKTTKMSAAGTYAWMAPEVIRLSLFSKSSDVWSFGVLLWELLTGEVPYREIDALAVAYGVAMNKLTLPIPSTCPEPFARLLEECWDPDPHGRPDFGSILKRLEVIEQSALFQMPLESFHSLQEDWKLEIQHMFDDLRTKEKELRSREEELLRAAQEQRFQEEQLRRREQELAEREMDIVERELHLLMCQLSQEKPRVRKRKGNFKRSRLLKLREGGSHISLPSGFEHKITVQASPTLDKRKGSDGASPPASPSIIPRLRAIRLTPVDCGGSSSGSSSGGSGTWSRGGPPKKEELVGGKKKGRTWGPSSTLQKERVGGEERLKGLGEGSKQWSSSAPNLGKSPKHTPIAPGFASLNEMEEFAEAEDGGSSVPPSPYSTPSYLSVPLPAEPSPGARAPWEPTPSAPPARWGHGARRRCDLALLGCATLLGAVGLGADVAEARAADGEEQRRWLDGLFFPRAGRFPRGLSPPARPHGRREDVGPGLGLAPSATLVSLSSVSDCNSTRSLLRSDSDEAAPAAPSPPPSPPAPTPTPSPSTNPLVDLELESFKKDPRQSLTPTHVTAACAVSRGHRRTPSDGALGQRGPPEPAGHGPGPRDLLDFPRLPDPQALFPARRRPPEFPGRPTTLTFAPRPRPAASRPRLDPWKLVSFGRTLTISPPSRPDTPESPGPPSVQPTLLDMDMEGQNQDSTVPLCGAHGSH

[19] = molecular target: Serine/threonine-protein kinase NIM1 (Homo sapiens) (UniProt Q8IY84); details: Compound concentration 1000.0 nM
[20] = molecular target: Mitogen-activated protein kinase 13 (Homo sapiens) (UniProt O15264); details: Compound concentration 1000.0 nM
Chain of Mitogen-activated protein kinase 13 (Homo sapiens) (O15264 whole entry, canonical isoform): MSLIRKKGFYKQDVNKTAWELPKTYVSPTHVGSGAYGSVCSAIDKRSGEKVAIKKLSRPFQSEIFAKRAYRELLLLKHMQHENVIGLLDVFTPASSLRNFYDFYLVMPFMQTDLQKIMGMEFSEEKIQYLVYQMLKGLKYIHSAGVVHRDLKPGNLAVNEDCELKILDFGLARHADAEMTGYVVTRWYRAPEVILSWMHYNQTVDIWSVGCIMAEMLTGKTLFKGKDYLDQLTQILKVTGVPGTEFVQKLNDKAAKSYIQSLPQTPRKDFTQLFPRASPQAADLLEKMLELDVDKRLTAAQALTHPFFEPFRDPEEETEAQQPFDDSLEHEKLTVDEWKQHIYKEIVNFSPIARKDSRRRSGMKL

[21] = molecular target: Phosphorylase b kinase gamma catalytic chain, skeletal muscle/heart isoform (Homo sapiens) (UniProt Q16816); details: Compound concentration 1000.0 nM
[22] = system: Phosphatidylinositol 4,5-bisphosphate 3-kinase catalytic subunit alpha isoform (Homo sapiens), P42336 [I800L]; details: Compound concentration 1000.0 nM
[23] = molecular target: Phosphatidylinositol 4-kinase beta (Homo sapiens) (UniProt Q9UBF8); details: Compound concentration 1000.0 nM
[24] = molecular target: Serine/threonine-protein kinase pim-2 (Homo sapiens) (UniProt Q9P1W9); details: Compound concentration 1000.0 nM
[25] = molecular target: Serine/threonine-protein kinase pim-3 (Homo sapiens) (UniProt Q86V86); details: Compound concentration 1000.0 nM
[26] = molecular target: Membrane-associated tyrosine- and threonine-specific cdc2-inhibitory kinase (Homo sapiens) (UniProt Q99640); details: Compound concentration 1000.0 nM
[27] = molecular target: Serine/threonine-protein kinase N1 (Homo sapiens) (UniProt Q16512); details: Compound concentration 1000.0 nM
Chain of Serine/threonine-protein kinase N1 (Homo sapiens) (Q16512 2-942 limits assumed): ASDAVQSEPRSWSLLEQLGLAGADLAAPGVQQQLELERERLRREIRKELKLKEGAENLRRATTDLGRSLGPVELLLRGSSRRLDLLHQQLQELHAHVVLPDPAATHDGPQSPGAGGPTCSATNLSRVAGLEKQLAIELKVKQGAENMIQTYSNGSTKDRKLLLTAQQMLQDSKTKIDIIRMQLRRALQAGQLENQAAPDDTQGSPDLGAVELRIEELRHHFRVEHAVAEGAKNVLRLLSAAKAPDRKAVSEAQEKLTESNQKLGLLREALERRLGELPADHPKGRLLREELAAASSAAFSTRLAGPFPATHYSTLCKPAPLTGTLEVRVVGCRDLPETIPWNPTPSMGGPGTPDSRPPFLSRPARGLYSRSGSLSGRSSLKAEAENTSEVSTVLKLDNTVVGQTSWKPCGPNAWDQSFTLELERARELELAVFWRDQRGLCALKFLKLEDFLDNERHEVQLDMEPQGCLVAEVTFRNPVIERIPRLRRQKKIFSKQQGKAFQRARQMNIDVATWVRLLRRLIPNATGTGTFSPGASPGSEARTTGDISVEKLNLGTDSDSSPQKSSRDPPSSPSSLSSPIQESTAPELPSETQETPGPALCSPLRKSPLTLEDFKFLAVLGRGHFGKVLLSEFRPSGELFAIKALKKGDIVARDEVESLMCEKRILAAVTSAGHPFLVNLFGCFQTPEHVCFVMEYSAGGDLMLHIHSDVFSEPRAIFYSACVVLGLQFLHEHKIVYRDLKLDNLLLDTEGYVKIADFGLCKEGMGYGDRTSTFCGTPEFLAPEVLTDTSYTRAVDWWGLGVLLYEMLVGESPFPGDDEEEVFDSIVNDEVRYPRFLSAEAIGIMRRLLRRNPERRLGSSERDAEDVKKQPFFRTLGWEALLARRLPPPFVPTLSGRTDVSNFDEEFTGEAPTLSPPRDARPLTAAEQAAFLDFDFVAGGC

[28] = molecular target: Serine/threonine-protein kinase PknB (Mycobacterium tuberculosis) (UniProt P9WI81); details: Compound concentration 1000.0 nM
Chain of Serine/threonine-protein kinase PknB (Mycobacterium tuberculosis) (P9WI81 whole entry): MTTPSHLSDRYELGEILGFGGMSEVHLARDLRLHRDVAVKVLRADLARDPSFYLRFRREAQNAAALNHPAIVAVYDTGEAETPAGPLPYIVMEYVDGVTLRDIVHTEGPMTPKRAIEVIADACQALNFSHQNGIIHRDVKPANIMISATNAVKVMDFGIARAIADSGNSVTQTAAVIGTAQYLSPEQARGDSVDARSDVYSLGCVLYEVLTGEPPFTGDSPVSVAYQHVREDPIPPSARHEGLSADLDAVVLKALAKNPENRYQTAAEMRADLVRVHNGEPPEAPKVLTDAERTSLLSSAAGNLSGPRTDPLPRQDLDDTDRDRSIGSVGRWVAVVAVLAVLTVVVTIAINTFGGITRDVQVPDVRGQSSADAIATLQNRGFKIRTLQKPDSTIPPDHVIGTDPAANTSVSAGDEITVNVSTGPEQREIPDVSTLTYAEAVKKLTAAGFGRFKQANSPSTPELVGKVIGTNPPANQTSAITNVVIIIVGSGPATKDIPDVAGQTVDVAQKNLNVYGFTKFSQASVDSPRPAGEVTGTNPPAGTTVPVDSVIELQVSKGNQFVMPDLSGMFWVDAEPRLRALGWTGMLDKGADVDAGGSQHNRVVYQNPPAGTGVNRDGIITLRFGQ

[29] = system: Proto-oncogene tyrosine-protein kinase receptor Ret (Homo sapiens), P07949 [M918T]; details: Compound concentration 1000.0 nM
[30] = molecular target: Receptor-interacting serine/threonine-protein kinase 4 (Homo sapiens) (UniProt P57078); details: Compound concentration 1000.0 nM
Chain of Receptor-interacting serine/threonine-protein kinase 4 (Homo sapiens) (P57078 whole entry): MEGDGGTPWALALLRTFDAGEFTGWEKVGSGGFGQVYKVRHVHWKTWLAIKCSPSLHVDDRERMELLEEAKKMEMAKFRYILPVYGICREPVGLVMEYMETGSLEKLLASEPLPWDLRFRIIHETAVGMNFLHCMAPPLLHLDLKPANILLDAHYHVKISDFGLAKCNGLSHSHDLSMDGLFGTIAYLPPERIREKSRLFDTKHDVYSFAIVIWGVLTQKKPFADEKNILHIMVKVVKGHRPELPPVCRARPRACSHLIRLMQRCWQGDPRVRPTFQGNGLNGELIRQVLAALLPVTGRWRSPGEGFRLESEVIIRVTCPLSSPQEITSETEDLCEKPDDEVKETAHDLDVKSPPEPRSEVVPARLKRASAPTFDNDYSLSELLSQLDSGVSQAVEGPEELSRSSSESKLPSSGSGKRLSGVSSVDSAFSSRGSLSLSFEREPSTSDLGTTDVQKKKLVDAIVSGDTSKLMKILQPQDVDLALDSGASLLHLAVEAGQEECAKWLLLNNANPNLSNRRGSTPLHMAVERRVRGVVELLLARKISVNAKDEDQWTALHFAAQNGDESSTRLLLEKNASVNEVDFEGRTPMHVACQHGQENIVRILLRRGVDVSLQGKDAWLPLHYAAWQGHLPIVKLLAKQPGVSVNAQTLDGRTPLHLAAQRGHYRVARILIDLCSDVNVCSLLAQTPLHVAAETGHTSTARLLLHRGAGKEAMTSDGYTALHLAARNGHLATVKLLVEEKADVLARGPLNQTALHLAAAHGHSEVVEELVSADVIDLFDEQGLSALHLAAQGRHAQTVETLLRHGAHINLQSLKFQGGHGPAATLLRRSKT

[31] = molecular target: SRSF protein kinase 2 (Homo sapiens) (UniProt P78362); details: Compound concentration 1000.0 nM
[32] = molecular target: Serine/threonine-protein kinase 36 (Homo sapiens) (UniProt Q9NRP7); details: Compound concentration 1000.0 nM
[33] = molecular target: Tyrosine-protein kinase Tec (Homo sapiens) (UniProt P42680); details: Compound concentration 1000.0 nM
[34] = molecular target: Tyrosine-protein kinase receptor Tie-1 (Homo sapiens) (UniProt P35590); details: Compound concentration 1000.0 nM
[35] = molecular target: Serine/threonine-protein kinase TNNI3K (Homo sapiens) (UniProt Q59H18); details: Compound concentration 1000.0 nM
[36] = molecular target: Transient receptor potential cation channel subfamily M member 6 (Homo sapiens) (UniProt Q9BX84); details: Compound concentration 1000.0 nM
[37] = molecular target: Testis-specific serine/threonine-protein kinase 3 (Homo sapiens) (UniProt Q96PN8); details: Compound concentration 1000.0 nM
[38] = molecular target: Vascular endothelial growth factor receptor 2 (Homo sapiens) (UniProt P35968); details: Compound concentration 1000.0 nM
[39] = molecular target: Serine/threonine-protein kinase VRK2 (Homo sapiens) (UniProt Q86Y07); details: Compound concentration 1000.0 nM
[40] = molecular target: Serine/threonine-protein kinase 32B (Homo sapiens) (UniProt Q9NY57); details: Compound concentration 1000.0 nM
[41] = molecular target: Serine/threonine-protein kinase 32C (Homo sapiens) (UniProt Q86UX6); details: Compound concentration 1000.0 nM
[42] = molecular target: Serine/threonine-protein kinase 25 (Homo sapiens) (UniProt O00506); details: Compound concentration 1000.0 nM
[43] = molecular target: 5-hydroxytryptamine receptor 1D (Homo sapiens) (UniProt P28221); details: Compound concentration 10.0 uM
[44] = molecular target: 5-hydroxytryptamine receptor 2B (Homo sapiens) (UniProt P41595); details: Compound concentration 10.0 uM
[45] = molecular target: Beta-2 adrenergic receptor (Homo sapiens) (UniProt P07550); details: Compound concentration 10.0 uM

Chain of Activin receptor type-1B (Homo sapiens) (P36896 whole entry): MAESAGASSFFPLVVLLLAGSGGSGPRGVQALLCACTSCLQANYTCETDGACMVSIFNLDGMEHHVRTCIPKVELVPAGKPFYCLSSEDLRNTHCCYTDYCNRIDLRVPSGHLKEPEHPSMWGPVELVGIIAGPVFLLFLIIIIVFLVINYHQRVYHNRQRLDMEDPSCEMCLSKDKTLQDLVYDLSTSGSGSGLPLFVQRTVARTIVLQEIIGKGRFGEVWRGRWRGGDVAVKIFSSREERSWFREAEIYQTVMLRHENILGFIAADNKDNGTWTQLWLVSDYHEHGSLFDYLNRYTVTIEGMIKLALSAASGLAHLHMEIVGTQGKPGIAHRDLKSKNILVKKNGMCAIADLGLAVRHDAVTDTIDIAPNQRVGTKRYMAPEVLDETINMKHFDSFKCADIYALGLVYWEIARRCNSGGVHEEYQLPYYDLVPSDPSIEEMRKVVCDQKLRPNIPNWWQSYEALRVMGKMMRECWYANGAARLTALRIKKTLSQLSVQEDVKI

## O=C(O)[C@@H]1[C@@H](Cn2nnc3ccccc3c2=O)CC[C@H]1C(=O)c1ccc(OCCC2CCOCC2)cc1 [BAY-694]
[1]
  residual activity: 100%
[2]
  residual activity: 83%
[3]
  residual activity: 99%
[4]
  residual activity: 100%
[5]
  residual activity: 88%
[6]
  residual activity: 100%
[7]
  residual activity: 90%
[8]
  residual activity: 100%
[9]
  residual activity: 94%
[10]
  residual activity: 100%
[11]
  residual activity: 88%
[12]
  residual activity: 100%
[13]
  residual activity: 100%
[14]
  residual activity: 100%
[15]
  residual activity: 100%
[16]
  residual activity: 91%
[17]
  residual activity: 100%
[18]
  residual activity: 100%
[19]
  residual activity: 73%
[20]
  residual activity: 94%
[21]
  residual activity: 100%
[22]
  residual activity: 34%
[23]
  residual activity: 83%
[24]
  residual activity: 94%
[25]
  residual activity: 84%
[26]
  residual activity: 82%
[27]
  residual activity: 97%
[28]
  residual activity: 94%
[29]
  residual activity: 100%
[30]
  residual activity: 81%
[31]
  residual activity: 100%
[32]
  residual activity: 91%
[33]
  residual activity: 95%
[34]
  residual activity: 100%
[35]
  residual activity: 94%
[36]
  residual activity: 96%
[37]
  residual activity: 100%
[38]
  residual activity: 78%
[39]
  residual activity: 80%
[40]
  residual activity: 100%
[41]
  residual activity: 100%
[42]
  residual activity: 87%
[43]
  inhibition: 14%
[44]
  inhibition: 36.2%
[45]
  inhibition: 24.4%

## O=C(O)[C@H]1[C@H](Cn2nnc3ccccc3c2=O)CC[C@@H]1C(=O)c1ccc(OCCC2CCOCC2)cc1 [BAY-7598]
[1]
  residual activity: 74%
[2]
  residual activity: 89%
[3]
  residual activity: 94%
[4]
  residual activity: 100%
[5]
  residual activity: 79%
[6]
  residual activity: 73%
[7]
  residual activity: 81%
[8]
  residual activity: 95%
[9]
  residual activity: 100%
[10]
  residual activity: 89%
[11]
  residual activity: 82%
[12]
  residual activity: 100%
[13]
  residual activity: 71%
[14]
  residual activity: 100%
[15]
  residual activity: 83%
[16]
  residual activity: 100%
[17]
  residual activity: 100%
[18]
  residual activity: 82%
[19]
  residual activity: 93%
[20]
  residual activity: 97%
[21]
  residual activity: 74%
[22]
  residual activity: 73%
[23]
  residual activity: 93%
[24]
  residual activity: 96%
[25]
  residual activity: 86%
[26]
  residual activity: 96%
[27]
  residual activity: 88%
[28]
  residual activity: 77%
[29]
  residual activity: 76%
[30]
  residual activity: 80%
[31]
  residual activity: 100%
[32]
  residual activity: 100%
[33]
  residual activity: 100%
[34]
  residual activity: 75%
[35]
  residual activity: 100%
[36]
  residual activity: 100%
[37]
  residual activity: 85%
[38]
  residual activity: 88%
[39]
  residual activity: 80%
[40]
  residual activity: 100%
[41]
  residual activity: 89%
[42]
  residual activity: 90%
[43]
  inhibition: 4.82%
[44]
  inhibition: 22.8%
[45]
  inhibition: 8.44%
